Values after ≈ are worked out from the molar mass of the structure shown. Read-outs that look alike come from different tables or passages of the source.
Tests used:
[1] = system: M. tuberculosis strain H37Rv (ATCC 27294); assay: microbe, parasite or virus in culture; type: cell-based, Mycobacterium tuberculosis; details: Mycobacterium tuberculosis
[2] = system: M. tuberculosis 5 global clade representatives; assay: microbe, parasite or virus in culture; type: cell-based; details: Mycobacterium tuberculosis, read-out: MICs
[3] = system: M. smegmatis (ATCC 700084); assay: microbe, parasite or virus in culture; type: cell-based; details: Mycolicibacterium smegmatis, ATCC700084; M. smegmatis; read-out: MIC
M. marinum (ATCC 927) = assay: microbe, parasite or virus in culture; type: cell-based; details: Mycobacterium marinum, ATCC927; M. marinum; read-out: MIC
M. kansasii (ATCC 12478) = assay: microbe, parasite or virus in culture; type: cell-based; details: Mycobacterium kansasii, ATCC12478; M. kansasii; read-out: MIC
Vero cell (ATCC CRL-81) = assay: cells; type: cell-based; details: Chlorocebus sabaeus, 72 h
[4] = system: nonreplicating cultures of M. tuberculosis; assay: microbe, parasite or virus in culture; type: cell-based, Mycobacterium tuberculosis
[5] = system: M. tuberculosis Erdman (ATCC 35801) in J774A.1 macrophages; type: cell-based, Mycobacterium tuberculosis
M. abscessus = assay: MBC against M. abscessus; details: Mycobacteroides abscessus
Description: Parallel plates were processed as described for M. tuberculosis. The plates were incubated at 37°C for 5 days before CFU determination.

C/C=C/C[C@@H]1NC(=O)[C@H](CC(C)C)N2C(=O)C(C[C@H](C)[C@H]2O)N(C)C(=O)[C@H](C)NC(=O)[C@H](Cc2ccc(O)c([N+](=O)[O-])c2)NC(=O)[C@H](CC(C)C)N(C)C(=O)[C@H](Cc2cn(C(C)(C)C3CO3)c3ccccc23)NC1=O (stereo partly drawn) [RUFI, rufomycin I]
MIC [1]: 0.02 µM (≈ 0.0208 µg/mL) | MIC ([1]; read-out: MIC against M. tuberculosis): 0.01 µM (≈ 0.0104 µg/mL) | MIC [2]: 3 to 11 nM (≈ 0.00313 to 0.0115 µg/mL) | MIC [3]: 0.073 µM (≈ 0.0761 µg/mL) | MIC (M. marinum (ATCC 927)): < 0.02 µM | MIC (M. kansasii (ATCC 12478)): 0.04 µM (≈ 0.0417 µg/mL) | IC50 (Vero cell (ATCC CRL-81)): > 50 µM | MBC [4]: lacks this activity | MIC ([4]; Mycobacterium tuberculosis): > 10 µM | inhibition at 10 µM ([4]; Mycobacterium tuberculosis): 75% | activity against M. tuberculosis in murine macrophages (CFU) [5]: even more potent than rifampin | MBC (M. abscessus): 1.2 µM (≈ 1.25 µg/mL)
